Measured values published in PubChem BioAssay AID330 (DTP/NCI, 2004).
Where “and” joins values, the source holds several entries; their conditions need not be identical. Equal entries are not always repeated. Inconclusive results and toxic doses are left out. The calls were made as follows: active = survival T/C of 150% or more; inactive = T/C below 125% in these data.

Test system: P388 leukemia ip, CD2F1 mice, survival T/C
Test: NCI In Vivo Anticancer Drug Screen. Data for tumor model P388 Leukemia (intraperitoneal) in CD2F1 (CDF1) mice
Details: endpoint: median survival time, higher = longer survival
Procedure, shortened: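 Mice carrying the transplanted tumor received test compound or vehicle. Survival was recorded in each group, and the value is the treated-group measurement divided by that of the vehicle-treated control group.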

[1] = dose: 60.0 mg/kg/injection, schedule: Q01DX005 (ip), vehicle: saline with Tween-80
[2] = dose: 120.0 mg/kg/injection, schedule: Q01DX005 (ip), vehicle: saline with Tween-80
[3] = dose: 25.0 mg/kg/injection, schedule: Q04DX003 (ip), vehicle: saline with Tween-80
[4] = dose: 50.0 mg/kg/injection, schedule: Q01DX009 (ip), vehicle: saline with Tween-80
[5] = dose: 100.0 mg/kg/injection, schedule: Q01DX009 (ip), vehicle: saline with Tween-80
[6] = dose: 12.5 mg/kg/injection, schedule: Q01DX009 (ip), vehicle: distilled water + Tween-80
[7] = dose: 100.0 mg/kg/injection, schedule: Q01DX009 (ip), vehicle: distilled water + Tween-80
[8] = dose: 25.0 mg/kg/injection, schedule: Q01DX009 (ip), vehicle: saline with Tween-80
[9] = dose: 50.0 mg/kg/injection, schedule: Q01DX009 (ip), vehicle: Klucel (hydroxypropylcellulose) (HPC)
[10] = dose: 100.0 mg/kg/injection, schedule: Q01DX009 (ip), vehicle: Klucel (hydroxypropylcellulose) (HPC)
[11] = dose: 200.0 mg/kg/injection, schedule: Q01DX009 (ip), vehicle: Klucel (hydroxypropylcellulose) (HPC)
[12] = dose: 100.0 mg/kg/injection, schedule: Q04DX003 (ip), vehicle: saline with Tween-80
[13] = dose: 200.0 mg/kg/injection, schedule: Q04DX003 (ip), vehicle: saline with Tween-80
[14] = dose: 50.0 mg/kg/injection, schedule: Q01DX005 (ip), vehicle: saline with Tween-80
[15] = dose: 100.0 mg/kg/injection, schedule: Q01DX005 (ip), vehicle: saline with Tween-80
[16] = dose: 200.0 mg/kg/injection, schedule: Q01DX005 (ip), vehicle: saline with Tween-80

Measured: T/C

CN(C)CCOc1ccc2c(c1)C1=NN(c3ccccc3)C(=O)CC1CO2 (stereo unspecified)
inactive: [1] 103 % of control | [2] 99 % of control

CC(=O)OCC1OC(SP(c2ccccc2)c2ccccc2)C(OC(C)=O)C(OC(C)=O)C1OC(C)=O (stereo unspecified)
inactive: dose: 50.0 mg/kg/injection, schedule: Q01DX009 (ip), vehicle: saline + alcohol 116 % of control | dose: 100.0 mg/kg/injection, schedule: Q01DX009 (ip), vehicle: saline + alcohol 118 % of control | dose: 200.0 mg/kg/injection, schedule: Q01DX009 (ip), vehicle: saline + alcohol 108 % of control

C=CCN(CC=C)C(=O)Nc1cccc2c(NC(=O)N(CC=C)CC=C)cccc12
inactive: [1] 93 % of control | [2] 97 % of control | dose: 240.0 mg/kg/injection, schedule: Q01DX005 (ip), vehicle: saline with Tween-80 97 % of control

C1NNCC12CNNC2
inactive: dose: 100.0 mg/kg/injection, schedule: Q04DX003 (ip), vehicle: suspension in saline 94 % of control | dose: 200.0 mg/kg/injection, schedule: Q04DX003 (ip), vehicle: suspension in saline 94 % of control | dose: 400.0 mg/kg/injection, schedule: Q04DX003 (ip), vehicle: suspension in saline 90 % of control

CC(C)=CCCC(C)CCC1NC(C(=O)O)CS1 (stereo unspecified)
inactive: dose: 50.0 mg/kg/injection, schedule: Q01DX009 (ip), vehicle: saline 94 % of control | dose: 100.0 mg/kg/injection, schedule: Q01DX009 (ip), vehicle: saline 94 % of control | dose: 200.0 mg/kg/injection, schedule: Q01DX009 (ip), vehicle: saline 95 % of control

Cc1cc(C)nc(NS(=O)(=O)c2ccc(N=NC3=C(O)C(c4ccccc4)N(c4ccccc4)C3=O)cc2)n1 (stereo unspecified)
inactive: dose: 60.0 mg/kg/injection, schedule: Q01DX005 (ip), vehicle: saline 93 % of control | dose: 120.0 mg/kg/injection, schedule: Q01DX005 (ip), vehicle: saline 86 % of control

Nc1ncnc2c1c(C(=O)O)cn2C1OC(CO)C(O)C1O (stereo unspecified)
inactive: [3] 120 % of control | [4] 118 % of control | [5] 86 % of control

CN1CCC(CC2CCCCN2)CC1 (stereo unspecified)
inactive: dose: 6.25 mg/kg/injection, schedule: Q01DX009 (ip), vehicle: distilled water + Tween-80 99 % of control | [6] 105 % of control and 95 % of control | dose: 25.0 mg/kg/injection, schedule: Q01DX009 (ip), vehicle: distilled water + Tween-80 98 % of control and 122 % of control | dose: 50.0 mg/kg/injection, schedule: Q01DX009 (ip), vehicle: distilled water + Tween-80 108 % of control and 116 % of control | [7] 103 % of control

O=C(Nc1ccccc1O)C1C(=O)C(=O)N(c2ccccc2O)C1=O (stereo unspecified)
inactive: [8] 97 % of control | [9] 101 % of control and 105 % of control and 107 % of control | [4] 105 % of control | [10] 99 % of control and 101 % of control (2×) | [5] 97 % of control | [11] 106 % of control | dose: 200.0 mg/kg/injection, schedule: Q01DX009 (ip), vehicle: saline with Tween-80 102 % of control

NC(=O)c1[nH]c(N=Nc2ccc(Cl)cc2)nc1N
inactive: [9] 92 % of control | [10] 100 % of control | [11] 89 % of control

C/C(Br)=C(\C(=O)O)S(=O)(=O)O
inactive: dose: 5.0 mg/kg/injection, schedule: Q01DX009 (ip), vehicle: saline with Tween-80 106 % of control | dose: 10.0 mg/kg/injection, schedule: Q01DX009 (ip), vehicle: saline with Tween-80 97 % of control | dose: 20.0 mg/kg/injection, schedule: Q01DX009 (ip), vehicle: saline with Tween-80 99 % of control

O=C1c2cc(Cl)ccc2-c2c(Cl)cc(Cl)cc21
inactive: dose: 12.5 mg/kg/injection, schedule: Q01DX009 (ip), vehicle: saline with Tween-80 87 % of control | [8] 100 % of control | [4] 100 % of control

Cc1n[nH]c(=O)c2ccccc12
inactive: [12] 91 % of control | [13] 99 % of control | dose: 400.0 mg/kg/injection, schedule: Q04DX003 (ip), vehicle: saline with Tween-80 107 % of control

COc1ccc(/C=C/c2ccc(S(=O)(=O)c3ccc(/C=C/c4ccc(OC)cc4)c(NC(C)=O)c3)cc2NC(C)=O)cc1
inactive: [8] 97 % of control | [4] 97 % of control | [5] 92 % of control

N#Cc1ccc(NN=NCCCl)cc1
inactive: [6] 114 % of control | dose: 12.5 mg/kg/injection, schedule: Q01DX009 (ip), vehicle: distilled water + alcohol 95 % of control | dose: 25.0 mg/kg/injection, schedule: Q01DX009 (ip), vehicle: distilled water + alcohol 91 % of control | dose: 50.0 mg/kg/injection, schedule: Q01DX009 (ip), vehicle: distilled water + alcohol 97 % of control | [7] 87 % of control | dose: 100.0 mg/kg/injection, schedule: Q01DX009 (ip), vehicle: distilled water + alcohol 88 % of control

COc1cc(C/C(=C/c2ccc(OC)c3occc23)[N+](=O)[O-])cc(OC)c1OC
inactive: [14] 98 % of control | [15] 107 % of control | [16] 113 % of control

c1ccc(-c2csnn2)cc1
inactive: [3] 99 % of control | dose: 50.0 mg/kg/injection, schedule: Q04DX003 (ip), vehicle: saline with Tween-80 100 % of control | [12] 99 % of control | [13] 106 % of control

CC(=O)C(Cl)C(=O)c1c(C)[nH]n(-c2ccccc2)c1=O (stereo unspecified)
inactive: dose: 50.0 mg/kg/injection, schedule: Q01DX005 (ip), vehicle: Klucel (hydroxypropylcellulose) (HPC) 110 % of control | dose: 100.0 mg/kg/injection, schedule: Q01DX005 (ip), vehicle: Klucel (hydroxypropylcellulose) (HPC) 123 % of control

COc1ccc(Cn2nnc(C(N)=O)c2NC=O)cc1
inactive: dose: 100.0 mg/kg/injection, schedule: Q01DX001 (ip), vehicle: Klucel (hydroxypropylcellulose) (HPC) 95 % of control | dose: 200.0 mg/kg/injection, schedule: Q01DX001 (ip), vehicle: Klucel (hydroxypropylcellulose) (HPC) 100 % of control | dose: 400.0 mg/kg/injection, schedule: Q01DX001 (ip), vehicle: Klucel (hydroxypropylcellulose) (HPC) 100 % of control

Cc1ccc(-[n+]2c3cc(N)c(C)cc3nc3cc(C)c(Nc4ccccc4)cc32)cc1
inactive: dose: 25.0 mg/kg/injection, schedule: Q01DX005 (ip), vehicle: saline + Tween-80 + alcohol 109 % of control | dose: 25.0 mg/kg/injection, schedule: Q01DX005 (ip), vehicle: saline with Tween-80 101 % of control | dose: 50.0 mg/kg/injection, schedule: Q01DX005 (ip), vehicle: saline + Tween-80 + alcohol 116 % of control | [14] 119 % of control and 122 % of control | [15] 119 % of control and 122 % of control | [16] 119 % of control

CCOC(=O)c1ccc([O-])c([I+]c2ccccc2)c1
inactive: dose: 50.0 mg/kg/injection, schedule: Q04DX003 (ip), vehicle: Klucel (hydroxypropylcellulose) (HPC) 100 % of control | dose: 100.0 mg/kg/injection, schedule: Q04DX003 (ip), vehicle: Klucel (hydroxypropylcellulose) (HPC) 100 % of control | dose: 200.0 mg/kg/injection, schedule: Q04DX003 (ip), vehicle: Klucel (hydroxypropylcellulose) (HPC) 101 % of control

COc1ccc(-c2c3ccc(OC)cc3n3ccccc23)cc1
inactive: dose: 100.0 mg/kg/injection, schedule: Q01DX002 (ip), vehicle: saline with Tween-80 99 % of control | dose: 200.0 mg/kg/injection, schedule: Q01DX002 (ip), vehicle: saline with Tween-80 97 % of control | dose: 400.0 mg/kg/injection, schedule: Q01DX002 (ip), vehicle: saline with Tween-80 107 % of control
